Literature values in US11427542B2, “Compounds for treatment of cardiac arrhythmias and heart failure” (Elex Biotech, Inc., priority 2018, dated 2022).

Tested on: R176Q/+ mice
Details: cardiac pacing, versus placebo-treated

In the case of CCCCNc1ccc(C(=O)OCCN(CC)CC)c(OC)c1 [Compound 1], the “arrhythmic development (bidirectional VT / sustained polymorphic VT) following pacing” value is given as “protected from arrhythmic development following pacing”.
